According to PubChem BioAssay (NCI):
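The concentration for 50% growth inhibition is given as GI50. The concentration for full growth arrest is given as TGI.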

Columns and labels:
Test in all cases: inhibition of tumour cell growth, NCI panel, 384-well format
[1] = tested on: MALME-3M melanoma
[2] = tested on: UACC-62 melanoma
[3] = tested on: MDA-MB-435 melanoma
[4] = tested on: MCF7 breast
[5] = tested on: HS 578T breast
[6] = tested on: A549 NSCLC
[7] = tested on: T-47D breast
[8] = tested on: PC-3 prostate
[9] = tested on: SR leukemia
[10] = tested on: OVCAR-4 ovarian
[11] = tested on: MOLT-4 leukemia
[12] = tested on: CAKI-1 renal
[13] = tested on: COLO 205 colon
[14] = tested on: OVCAR-8 ovarian
[15] = tested on: A498 renal
[16] = tested on: RPMI-8226 leukemia
[17] = tested on: TK-10 renal
[18] = tested on: HOP-92 NSCLC
[19] = tested on: KM12 colon
[20] = tested on: SNB-19 CNS
[21] = tested on: SF-295 CNS
[22] = tested on: NCI-H460 NSCLC
[23] = tested on: MDA-MB-231 breast
[24] = tested on: UACC-257 melanoma
[25] = tested on: SK-MEL-28 melanoma
[26] = tested on: NCI/ADR-RES ovarian
[27] = tested on: NCI-H322M lung
[28] = tested on: HOP-62 NSCLC
[29] = tested on: HT29 colon
[30] = tested on: 786-0 renal
[31] = tested on: K-562 leukemia
[32] = tested on: SW-620 colon
[33] = tested on: IGROV1 ovarian
[34] = tested on: NCI-H522 lung
[35] = tested on: SK-MEL-5 melanoma
[36] = tested on: ACHN renal
[37] = tested on: SK-OV-3 ovarian
[38] = tested on: SF-539 CNS
[39] = tested on: NCI-H226 lung
[40] = tested on: OVCAR-5 ovarian
[41] = tested on: NCI-H23 lung
[42] = tested on: RXF 393 renal
[43] = tested on: LOX IMVI melanoma
[44] = tested on: HCC-2998 colon
[45] = tested on: SN12C renal
[46] = tested on: SK-MEL-2 melanoma
[47] = tested on: CCRF-CEM leukemia

## Cc1c(Br)c(Br)c2c3c1nc(N1CCNCC1)n3CCC2
[1]
  GI50: 1.42 µM
  TGI: 2.73 µM
[2]
  GI50: 1.48 µM
  TGI: 2.82 µM
[3]
  GI50: 1.85 µM
  TGI: 3.27 µM
[4]
  GI50: 1.17 µM
  TGI: 2.42 µM
[5]
  GI50: 1.87 µM
  TGI: 3.28 µM
[6]
  GI50: 1.75 µM
  TGI: 3.35 µM
[7]
  GI50: 1.52 µM
  TGI: 2.86 µM
[8]
  GI50: 1.32 µM
  TGI: 2.67 µM
[9]
  GI50: 1.03 µM
  TGI: 2.24 µM
[10]
  GI50: 1.77 µM
  TGI: 3.51 µM
[11]
  GI50: 1.23 µM
  TGI: 2.48 µM
[12]
  GI50: 1.59 µM
  TGI: 2.99 µM
[13]
  GI50: 1.8 µM
  TGI: 3.21 µM
[14]
  GI50: 1.47 µM
  TGI: 2.85 µM
[15]
  GI50: 0.792 µM
  TGI: 2.07 µM
[16]
  GI50: 0.81 µM
  TGI: 2.27 µM
[17]
  GI50: 1.51 µM
  TGI: 2.88 µM
[18]
  GI50: 1.75 µM
  TGI: 3.3 µM
[19]
  GI50: 1.41 µM
  TGI: 2.73 µM
[20]
  GI50: 1.75 µM
  TGI: 3.24 µM
[21]
  GI50: 1.69 µM
  TGI: 3.1 µM
[22]
  GI50: 1.39 µM
  TGI: 2.73 µM
[23]
  GI50: 1.6 µM
  TGI: 3.24 µM
[24]
  GI50: 1.62 µM
  TGI: 2.99 µM
[25]
  GI50: 1.59 µM
  TGI: 2.95 µM
[26]
  GI50: 1.68 µM
  TGI: 3.27 µM
[27]
  GI50: 1.73 µM
  TGI: 3.42 µM
[28]
  GI50: 1.72 µM
  TGI: 3.57 µM
[29]
  GI50: 1.62 µM
  TGI: 3.06 µM
[30]
  GI50: 1.55 µM
  TGI: 2.9 µM
[31]
  GI50: 1.52 µM
  TGI: 2.89 µM
[32]
  GI50: 1.25 µM
  TGI: 2.51 µM
[33]
  GI50: 1.31 µM
  TGI: 2.61 µM
[34]
  GI50: 0.347 µM
  TGI: 1.8 µM
[35]
  GI50: 1.25 µM
  TGI: 2.51 µM
[36]
  GI50: 1.37 µM
  TGI: 2.73 µM
[37]
  GI50: 1.36 µM
  TGI: 2.74 µM
[38]
  GI50: 1.64 µM
  TGI: 3.01 µM
[39]
  GI50: 1.2 µM
  TGI: 2.62 µM
[40]
  GI50: 1.74 µM
  TGI: 3.24 µM
[41]
  GI50: 1.66 µM
  TGI: 3.09 µM
[42]
  GI50: 1.39 µM
  TGI: 2.68 µM
[43]
  GI50: 1.49 µM
  TGI: 2.84 µM
[44]
  GI50: 0.976 µM
  TGI: 2.23 µM
[45]
  GI50: 1.64 µM
  TGI: 3.02 µM
[46]
  GI50: 1.38 µM
  TGI: 2.68 µM
[47]
  GI50: 0.885 µM
  TGI: 2.17 µM

## CN1C(=O)[C@@H](CC2CCCC2)N(C2CCCC2)c2nc(Nc3cc(Cl)c(O)c(Cl)c3)ncc21
[1]
  GI50: 4.41 µM
  TGI: 29.9 µM
[2]
  GI50: 8.84 µM
  TGI: 23.2 µM
[3]
  GI50: 7.55 µM
  TGI: > 100 µM
[4]
  GI50: 3.16 µM
  TGI: 23.1 µM
[5]
  GI50: 3.04 µM
  TGI: 23.4 µM
[6]
  GI50: 4.89 µM
  TGI: 70.7 µM
[7]
  GI50: 2.38 µM
  TGI: > 100 µM
[8]
  GI50: 3.42 µM
  TGI: 20.2 µM
[9]
  GI50: 2.87 µM
  TGI: 8.95 µM
[10]
  GI50: 5.33 µM
  TGI: 37.1 µM
[11]
  GI50: 1.67 µM
  TGI: 3.06 µM
[12]
  GI50: 3.95 µM
  TGI: 22.2 µM
[13]
  GI50: 27.8 µM
  TGI: 81.8 µM
[14]
  GI50: 4.99 µM
  TGI: 60.5 µM
[15]
  GI50: 10.1 µM
  TGI: 27.1 µM
[16]
  GI50: 1.8 µM
  TGI: 4.17 µM
[17]
  GI50: 3.69 µM
  TGI: 20.1 µM
[18]
  GI50: 6.46 µM
  TGI: 42 µM
[19]
  GI50: 4.9 µM
  TGI: 24.6 µM
[20]
  GI50: 4.67 µM
  TGI: > 100 µM
[21]
  GI50: 13 µM
  TGI: 29.3 µM
[22]
  GI50: 6.22 µM
  TGI: 19.4 µM
[23]
  GI50: 7.5 µM
  TGI: > 100 µM
[24]
  GI50: 6 µM
  TGI: 25.4 µM
[25]
  GI50: 4.79 µM
  TGI: > 100 µM
[26]
  GI50: 3.46 µM
  TGI: 26.7 µM
[27]
  GI50: 15.4 µM
  TGI: 97.8 µM
[28]
  GI50: 12.1 µM
  TGI: 33.1 µM
[29]
  GI50: 35.6 µM
  TGI: > 100 µM
[30]
  GI50: 8.07 µM
  TGI: 24.3 µM
[31]
  GI50: 3.57 µM
  TGI: 15 µM
[32]
  GI50: 7.08 µM
  TGI: 40.7 µM
[33]
  GI50: 9.94 µM
  TGI: 39.6 µM
[34]
  GI50: 2.6 µM
  TGI: 8.91 µM
[35]
  GI50: 4.57 µM
  TGI: 16.4 µM
[36]
  GI50: 6.38 µM
  TGI: 26.2 µM
[37]
  GI50: 6.01 µM
  TGI: 45.2 µM
[38]
  GI50: 8.81 µM
  TGI: 27.2 µM
[39]
  GI50: 11.5 µM
  TGI: 31.7 µM
[40]
  GI50: 14.8 µM
  TGI: > 100 µM
[41]
  GI50: 4.5 µM
  TGI: 35 µM
[42]
  GI50: 2.45 µM
  TGI: 7.68 µM
[43]
  GI50: 6.14 µM
  TGI: 19.5 µM
[44]
  GI50: 5.31 µM
  TGI: 20.5 µM
[45]
  GI50: 10.4 µM
  TGI: > 100 µM
[46]
  GI50: 13.5 µM
  TGI: 28 µM
[47]
  GI50: 3.05 µM
  TGI: 8.14 µM
